Reference: the NIST ThermoML archive (doi:10.1016/j.jct.2012.07.022)
± gives the expanded uncertainty stated by the source.

Tests used:
[1] = 101.33 kPa, Liquid; for electrical conductivity: Alternating current cell with electrodes; for viscosity: Capillary tube (Ostwald / Ubbelohde) method; for speed of sound: Linear variable-path acoustic interferometer; for mass density: Vibrating tube method
[2] = refractive index (Na D-line) (dimensionless); settings: 101.33 kPa, Liquid, Standard Abbe refractometry

CC(=O)[O-].CCCCn1cc[n+](C)c1 [1-butyl-3-methylimidazolium acetate]
Settings | electrical conductivity, [1] [S/m] | mass density, [1] [kg/m3] | refractive index, [2] | speed of sound, [1] [m/s] | viscosity, [1] [mPa·s]
283.15 K | 0.0131 ± 0.0003 | 1061.85 ± 0.65 | 1.49925 ± 0.00044 | 1700 ± 3 | 1927 ± 130
288.15 K | 0.0215 ± 0.0004 | 1058.77 ± 0.65 | 1.49781 ± 0.00044 | 1683 ± 3 | 1165 ± 74
293.15 K | 0.0331 ± 0.0007 | 1055.69 ± 0.65 | 1.49634 ± 0.00044 | 1666 ± 3 | 736.6 ± 43
298.15 K | 0.049 ± 0.001 | 1052.63 ± 0.64 | 1.49488 ± 0.00044 | 1650 ± 3 | 485.1 ± 26
303.15 K | 0.0699 ± 0.0014 | 1049.61 ± 0.64 | 1.49342 ± 0.00044 | 1635 ± 3 | 330.9 ± 17
308.15 K | 0.0968 ± 0.0019 | 1046.6 ± 0.64 | 1.49197 ± 0.00044 | 1621 ± 3 | 233 ± 11
313.15 K | 0.131 ± 0.003 | 1043.59 ± 0.63 | 1.49053 ± 0.00044 | 1608 ± 3 | 168.7 ± 7.6
318.15 K | 0.172 ± 0.003 | 1040.59 ± 0.63 | 1.48909 ± 0.00044 | 1595 ± 3 | 125.2 ± 5.4
323.15 K | 0.221 ± 0.004 | 1037.58 ± 0.63 | 1.48765 ± 0.00044 | 1582 ± 3 | 95.05 ± 4
328.15 K | – | 1034.58 ± 0.63 | 1.48619 ± 0.00044 | 1570 ± 3 | 73.63 ± 3
333.15 K | – | 1031.59 ± 0.62 | 1.48477 ± 0.00044 | 1558 ± 3 | 58.09 ± 2.4
338.15 K | – | 1028.61 ± 0.62 | 1.48332 ± 0.00044 | 1546 ± 3 | 46.57 ± 1.9
343.15 K | – | 1025.64 ± 0.62 | 1.48189 ± 0.00044 | 1534 ± 3 | 37.91 ± 1.6
